Literature values as cited in patent US20110052727A1, “Anti Influenza Nutritional Supplements” (priority 2009, published 2011).

Tested on: lung-adapted PR-8 virus
Details: mouse, in vivo

O=C/C=C/c1ccccc1 [CA, trans-cinnamaldehyde]
virus yield reduction in bronchoalveolar lavage fluid: 1 log
